The results in this text go back to US8304601B2, “Mouse model for eye disease” (priority 2007, dated 2012).

Holding throughout (format): in vivo
Assay [1] concerns Vav3^ko mouse. Briefly: Intraocular pressure after Y-27632 eye drop, Test Example 3. As to conditions: 7-week old Vav3^ko; 3 μL of 1 mM/PBS solution to eye; one hour after administration. As for the experimental part: (§1) For No. 20 of each of the 7-week old Vav2/3^ko, Vav2^ko and Vav3^ko, intraocular pressure was measured between 10 o'clock in the morning and noon by using a Tonometer and then 3 μL of 1 mM/PBS solution of Y-27632 (Calbiochem), which is an inhibitor for Rho-associated protein kinase and has been reported to have an activity of reducing intraocular pressure by acting on an outflow tract for aqueous humor, or 3 μL of PBS solution was applied to an eye. One hour after the administration, the intraocular pressure was measured again.

In assay [2] the test system is Vav2/3^ko mouse. The description is as above. The following applies: 7-week old Vav2/3^ko; 3 μL of 1 mM/PBS solution to eye; one hour after administration. As for the experimental part: as §1
Assay [3] has as its system Vav2^ko mouse. The assay is described as above. As to conditions: 7-week old Vav2^ko; 3 μL of 1 mM/PBS solution to eye; one hour after administration. As for the experimental part: as §1
The test system of assay [4] is Vav2/3^ko mouse. As to the kind of experiment: Intraocular pressure after eye-drop administration, Example 5. As to conditions: for Ratio of effect on intraocular pressure: Vav2/3^ko. How it is done:
(§2) For the No. 20 animal of each of the 7-week old Vav2/3^ko and Vav2^ko, intraocular pressure was measured between 10 o'clock in the morning and noon by using a Tonometer. Then, 3 μL solution containing 0.02% benzalkonium chloride, 0.5% NaH2PO4, 0.6% Na2HPO4, 0.4% sodium chloride and 0.005% Latanoprost (manufactured by Cayman Chemical), or solution having the same composition except that no latanoplast was contained was applied to an eye of the animal based on a blind testing method. Three hours later, the intraocular pressure was measured again. In addition, to Vav2/3^ko, 3 μL eye-drop solution containing timolol maleate (Trade name; Timoptol, Merck Company, USA, 0.5% solution), or 3 μL eye-drop solution containing dorzolamide hydrochloride (Trade name; Trusopt, Merck Company, USA, 1% solution), both having a different mechanism for reducing intraocular pressure compared to latanoprost, was applied instead of the solution containing latanoprost as described above. Two hours after the application, change in the intraocular pressure was measured.

The test system of assay [5] is Vav2^ko mouse. The assay is described as above. As to conditions: 7-week old Vav2^ko. As for the experimental part:
as §2

The subject of assay [6] is Vav2/3^ko mouse. Briefly: Intraocular pressure after latanoprost eye drop, Example 4. The following applies: 8- to 9-week old Vav2/3^ko mouse; 3 μL 0.01%/PBS applied; three hours later; vs PBS control. As for the experimental part: For the 8- to 9-week old Vav2/3^ko mouse (No. 12), intraocular pressure was measured between 10 o'clock in the morning and noon by using a Tonometer. Then, 3 μL of latanoplast (0.01%/PBS, manufactured by Cayman Chemical) of a prostaglandin derivative as a therapeutic agent for glaucoma was applied and the intraocular pressure was measured again three hours later. As a control, a group administered only with PBS was prepared at the same time, and analysis was carried out based on Student's t-test (P<0.05). […] Therefore, it was confirmed that the mouse of the present invention is a useful model for evaluation of a therapeutic agent for glaucoma.

The mark [7] stands for this setting: 3 μL eye-drop solution (timolol maleate 0.5%, dorzolamide hydrochloride 1%), two hours after application.

Molecules are shown by their SMILES. Where a name gives a salt, the structure may show the parent alone.

On to `C[C@@H](N)[C@H]1CC[C@H](C(=O)Nc2ccncc2)CC1` [Y-27632], for which the “activity of reducing the intraocular pressure” value in assay [1], in assay [2] and in assay [3] was “did not show any activity of reducing the intraocular pressure” in each case.

For `CCN[C@H]1C[C@H](C)S(=O)(=O)c2sc(S(N)(=O)=O)cc21` [dorzolamide hydrochloride], the “Ratio of effect on intraocular pressure” value in assay [4] (setting [7]) is reported as 20%.

With `CC(C)OC(=O)CCC/C=C\C[C@@H]1[C@@H](CC[C@@H](O)CCc2ccccc2)[C@H](O)C[C@@H]1O` [latanoprost], the “intraocular pressure three hours after administration” value in assay [4] (7-week old Vav2/3^ko, 3 μL 0.005% solution to eye, three hours later, P<0.01) was found to be 15.8±5.1 mmHg; in assay [5] (3 μL 0.005% solution to eye, three hours later, P<0.01), 14.5 mmHg. In assay [4] (7-week old Vav2/3^ko, 3 μL 0.005% solution, twenty four hours after), the “intraocular pressure twenty four hours after eye drop administration” value was “came back to the high value which is the same as the one before the eye drop administration”. Moreover, the “intraocular pressure before administration” value was determined as 26.3±5.0 mmHg in assay [4] (7-week old Vav2/3^ko, before eye drop of 3 μL 0.005% solution) and 17.4 mmHg in assay [5] (before eye drop of 3 μL 0.005% solution). For the same compound, the “Ratio of effect on intraocular pressure” value in assay [4] (3 μL 0.005% latanoprost solution, three hours later) is reported as “about 40%”. In assay [6], the intraocular pressure change entry is “reduced”.

With `CC(C)(C)NC[C@H](O)COc1nsnc1N1CCOCC1` [timolol maleate], in assay [4] (setting [7]), the “Ratio of effect on intraocular pressure” value was determined as 15%.
